Each structure is given as a SMILES string.

The target in the assay is T1, Human GRIN1 and human GRIN2B expressing HEK293 cells (Homo sapiens, UniProt Q13224).
T1 construct: host or cells: HEK293
T1 sequence (Q13224 27-1484, other chains not shown): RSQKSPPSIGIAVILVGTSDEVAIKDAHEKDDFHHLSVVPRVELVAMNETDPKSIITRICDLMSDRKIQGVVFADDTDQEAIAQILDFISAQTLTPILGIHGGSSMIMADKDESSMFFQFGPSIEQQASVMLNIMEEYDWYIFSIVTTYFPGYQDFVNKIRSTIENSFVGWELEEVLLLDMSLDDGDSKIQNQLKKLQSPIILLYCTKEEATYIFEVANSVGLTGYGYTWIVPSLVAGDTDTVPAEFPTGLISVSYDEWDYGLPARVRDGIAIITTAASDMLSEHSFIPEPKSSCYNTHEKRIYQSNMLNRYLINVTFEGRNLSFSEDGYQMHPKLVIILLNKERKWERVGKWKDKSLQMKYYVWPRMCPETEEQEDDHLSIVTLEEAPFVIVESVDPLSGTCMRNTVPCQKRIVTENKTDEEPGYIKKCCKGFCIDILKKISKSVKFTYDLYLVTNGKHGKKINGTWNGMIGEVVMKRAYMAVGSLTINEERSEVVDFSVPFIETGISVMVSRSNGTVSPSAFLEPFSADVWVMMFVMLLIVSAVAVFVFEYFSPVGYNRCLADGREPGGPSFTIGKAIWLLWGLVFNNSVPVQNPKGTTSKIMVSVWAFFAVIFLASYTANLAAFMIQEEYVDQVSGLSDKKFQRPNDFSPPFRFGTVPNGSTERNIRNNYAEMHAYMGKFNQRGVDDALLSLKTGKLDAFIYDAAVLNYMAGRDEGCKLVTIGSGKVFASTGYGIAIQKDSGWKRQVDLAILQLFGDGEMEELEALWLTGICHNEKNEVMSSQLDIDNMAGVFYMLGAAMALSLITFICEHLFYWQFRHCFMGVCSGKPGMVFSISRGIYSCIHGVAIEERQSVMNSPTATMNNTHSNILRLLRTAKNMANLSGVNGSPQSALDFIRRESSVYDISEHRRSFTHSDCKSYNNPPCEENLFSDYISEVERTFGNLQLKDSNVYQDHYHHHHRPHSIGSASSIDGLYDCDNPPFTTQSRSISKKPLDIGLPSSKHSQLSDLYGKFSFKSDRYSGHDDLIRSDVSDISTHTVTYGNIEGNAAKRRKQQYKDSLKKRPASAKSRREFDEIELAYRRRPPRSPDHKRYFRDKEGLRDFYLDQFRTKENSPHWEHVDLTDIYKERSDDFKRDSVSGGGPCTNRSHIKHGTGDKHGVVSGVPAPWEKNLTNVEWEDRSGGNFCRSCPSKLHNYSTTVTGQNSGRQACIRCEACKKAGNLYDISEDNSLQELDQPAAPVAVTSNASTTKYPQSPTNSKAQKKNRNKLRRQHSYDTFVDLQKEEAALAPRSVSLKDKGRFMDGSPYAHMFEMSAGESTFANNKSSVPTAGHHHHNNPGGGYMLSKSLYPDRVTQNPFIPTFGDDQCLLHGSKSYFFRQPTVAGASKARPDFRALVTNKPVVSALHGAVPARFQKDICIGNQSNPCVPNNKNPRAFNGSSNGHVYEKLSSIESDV
The assay is described as follows: NR2B Ca2+ flux assay. Type of assay: cell-based. The note with it: 10 μM test compound, glutamic acid/glycine stimulated Fluo-4 fluorescence, FLIPR, read-out: inhibitory rate (@10 μM). How it is done:
Experimental Example 1 NR2B Ca^2+ Flux Assay
Human GRIN1 and human GRIN2B expressing HEK293 cells were purchased from ChanTest. The cells were cultured in a DMEM/F-12 (COSMO BIO, 10-092-CM) medium added with 10% FBS (fetal bovine serum, AusGene), 100 units/mL penicillin, 100 μg/mL streptomycin, 500 μg/mL neomycin, 100 μg/mL Zeocin, 5 μg/mL Blasticidin at 37° C., 5% CO2. The cells were detached from flask with trypsin the day before the assay, suspended in a seeding medium (DMEM (Invitrogen, 31053) added with 10% FBS, 100 units/mL penicillin, 100 μg/mL streptomycin) at 8×10^5 cells/mL, seeded by 25 μL per well in a 384-well plate (Falcon, 356663) at 20000 cells/well, and cultured overnight in an incubator. On the day of the assay, tetracycline (Wako Pure Chemical Industries, Ltd., 209-16561) was diluted with the seeding medium at 2 μg/mL, added at […] to the plate seeded with the cells, and cultured for 2 hr in an incubator. Thereafter, the medium was removed, and the cells were washed with 50 μL/well assay buffer (137 mM NaCl, 4 mM KCl, 1.8 mM CaCl2, 10 mM HEPES (pH 7.2), 10 mM Glucose, 0.1% BSA). Then, a loading buffer (assay buffer added with 2.5 uM Fluo-4AM, 2 mM Amaranth, 1 mM Tartrazine) was added at 25 μL/well, and loading was performed in the incubator for 30 min, and at room temperature for 15 min. A test compound (25 μL) was added, and the cells were stood for 15 min at room temperature. Using FLIPR (Molecular Devices), 25 μL of an assay buffer containing […], 30 μM glycine was added, and the fluorescence signal was measured every 3 seconds for 5 min. The inhibitory activity was calculated as a relative activity value that inhibits 100% of the cumulative value of the fluorescence value of a well added with a buffer free of glutamic acid, glycine, relative to the cumulative value of the fluorescence value of each well.
(In general: Calcium flux is commonly read through the fluorescence of an indicator in the cells.)
As to `O=C(Cc1cccc2nccn12)Nc1ccc(C(F)(F)F)cc1` [Example 1, 2-(imidazo[1,2-a]pyridin-5-yl)-N-(4-(trifluoromethyl)phenyl)acetamide], the inhibition at 10 µM is 91%. The same measure for `COc1ccc(NC(=O)Cc2cccc3nccn23)cc1` [Example 2, 2-(imidazo[1,2-a]pyridin-5-yl)-N-(4-methoxyphenyl)acetamide]: 91%; for `CCc1ccc(NC(=O)Cc2cccc3nccn23)cc1` [Example 3, N-(4-ethylphenyl)-2-(imidazo[1,2-a]pyridin-5-yl)acetamide]: 94%. On to `O=C(Cc1cccc2nccn12)Nc1ccc(C2CC2)cc1` [Example 4, N-(4-cyclopropylphenyl)-2-(imidazo[1,2-a]pyridin-5-yl)acetamide], for which the inhibition at 10 µM came out at 94%. Turning to `O=C(Cc1cccc2nccn12)Nc1ccc(OC(F)(F)F)cc1` [Example 5, 2-(imidazo[1,2-a]pyridin-5-yl)-N-(4-(trifluoromethoxy)phenyl)acetamide], the inhibition at 10 µM was determined as 93%. Under `O=C(Cc1cccc2nccn12)Nc1ccc(OC(F)F)cc1` [Example 6, N-(4-(difluoromethoxy)phenyl)-2-(imidazo[1,2-a]pyridin-5-yl)acetamide] stands 93%; under `O=C(Cc1cccc2nccn12)Nc1ccc(Cl)c(F)c1` [Example 7, N-(4-chloro-3-fluorophenyl)-2-(imidazo[1,2-a]pyridin-5-yl)acetamide], 90%. For `COc1ccc(NC(=O)Cc2cccc3nccn23)cc1F` [Example 8, N-(3-fluoro-4-methoxyphenyl)-2-(imidazo[1,2-a]pyridin-5-yl)acetamide], the inhibition at 10 µM is 92%. `O=C(Cc1cccc2nccn12)Nc1cc(F)c(F)c(F)c1` [Example 9, 2-(imidazo[1,2-a]pyridin-5-yl)-N-(3,4,5-trifluorophenyl)acetamide]: the inhibition at 10 µM turned out to be 87%. As to `CCCc1ccc(NC(=O)Cc2cccc3nccn23)cc1` [Example 10, 2-(imidazo[1,2-a]pyridin-5-yl)-N-(4-propylphenyl)acetamide], the inhibition at 10 µM is 91%. `CCc1ccc(NC(=O)Cc2cccc3nccn23)cc1F` [Example 11, N-(4-ethyl-3-fluorophenyl)-2-(imidazo[1,2-a]pyridin-5-yl)acetamide]: the inhibition at 10 µM worked out at 94%.

For the compound `O=C(Cc1cccc2nccn12)Nc1ccc(C2CC2)c(F)c1` [Example 12, N-(4-cyclopropyl-3-fluorophenyl)-2-(imidazo[1,2-a]pyridin-5-yl)acetamide], the inhibition at 10 µM came out at 93%. On to `O=C(Cc1cccc2nccn12)Nc1ccc(CC(F)F)cc1` [Example 13, N-(4-(2,2-difluoroethyl)phenyl)-2-(imidazo[1,2-a]pyridin-5-yl)acetamide], for which the inhibition at 10 µM is 88%. As to `O=C(Cc1cccc2nccn12)Nc1ccc(OC(F)(F)F)c(F)c1` [Example 14, N-(3-fluoro-4-(trifluoromethoxy)phenyl)-2-(imidazo[1,2-a]pyridin-5-yl) acetamide], the inhibition at 10 µM worked out at 92%. For `Cc1ccc(NC(=O)Cc2cccc3nccn23)cc1F` [Example 15, N-(3-fluoro-4-methylphenyl)-2-(imidazo[1,2-a]pyridin-5-yl)acetamide], the inhibition at 10 µM amounted to 91%.

On to `O=C(Cc1cccc2nccn12)Nc1ccc(I)cc1` [Example 16, 2-(imidazo[1,2-a]pyridin-5-yl)-N-(4-iodophenyl)acetamide], for which the inhibition at 10 µM turned out to be 91%. Regarding `O=C(Cc1cccc2nccn12)Nc1ccc(OC(F)F)c(F)c1` [Example 17, N-(4-(difluoromethoxy)-3-fluorophenyl)-2-(imidazo[1,2-a]pyridin-5-yl)acetamide], the inhibition at 10 µM worked out at 93%. Regarding `CCOc1ccc(NC(=O)Cc2cccc3nccn23)cc1F` [Example 18, N-(4-ethoxy-3-fluorophenyl)-2-(imidazo[1,2-a]pyridin-5-yl)acetamide], the inhibition at 10 µM worked out at 91%. Turning to `COc1c(F)cc(NC(=O)Cc2cccc3nccn23)cc1F` [Example 19, N-(3,5-difluoro-4-methoxyphenyl)-2-(imidazo[1,2-a]pyridin-5-yl)acetamide], the inhibition at 10 µM amounted to 91%.

In the case of `Cc1cnc2cccc(CC(=O)Nc3ccc(C(F)(F)F)cc3)n12` [Example 20, 2-(3-methylimidazo[1,2-a]pyridin-5-yl)-N-(4-(trifluoromethyl)phenyl)acetamide], the inhibition at 10 µM is 74%. As for `O=C(Cc1cccc2nccn12)Nc1ccc(F)c(C(F)F)c1` [Example 21, N-(3-(difluoromethyl)-4-fluorophenyl)-2-(imidazo[1,2-a]pyridin-5-yl)acetamide], the inhibition at 10 µM turned out to be 56%. The same measure for `Cc1cn2c(CC(=O)Nc3ccc(C(F)(F)F)cc3)cccc2n1` [Example 23, 2-(2-methylimidazo[1,2-a]pyridin-5-yl)-N-(4-(trifluoromethyl)phenyl)-acetamide]: 81%; for `COc1ccc(NC(=O)Cc2cccc3nccn23)cn1` [Example 24, 2-(imidazo[1,2-a]pyridin-5-yl)-N-(6-methoxypyridin-3-yl)acetamide]: 62%. For `O=C(Cc1cccc2nccn12)Nc1ccccc1` [Example 26, 2-(imidazo[1,2-a]pyridin-5-yl)-N-phenylacetamide], the inhibition at 10 µM was found to be 53%. As for `O=C(Cc1cccc2nccn12)Nc1ccc(F)cc1F` [Example 27, N-(2,4-difluorophenyl)-2-(imidazo[1,2-a]pyridin-5-yl)acetamide], the inhibition at 10 µM was 66%.

As for `O=C(Cc1cccc2nccn12)Nc1ccc(F)c(F)c1` [Example 29, N-(3,4-difluorophenyl)-2-(imidazo[1,2-a]pyridin-5-yl)acetamide], the inhibition at 10 µM was determined as 88%. For the compound `Cc1cccc(NC(=O)Cc2cccc3nccn23)c1` [Example 30, 2-(imidazo[1,2-a]pyridin-5-yl)-N-(3-methylphenyl)acetamide], the inhibition at 10 µM was 50%. For `N#Cc1ccc(NC(=O)Cc2cccc3nccn23)cc1` [Example 31, N-(4-cyanophenyl)-2-(imidazo[1,2-a]pyridin-5-yl)acetamide], the inhibition at 10 µM is 78%. Take `O=C(Cc1cccc2nccn12)Nc1ccc(F)cc1` [Example 32, N-(4-fluorophenyl)-2-(imidazo[1,2-a]pyridin-5-yl)acetamide]: the inhibition at 10 µM came to 83%. For `O=C(Cc1cccc2nccn12)Nc1ccc(Cl)cc1` [Example 33, N-(4-chlorophenyl)-2-(imidazo[1,2-a]pyridin-5-yl)acetamide], the inhibition at 10 µM was found to be 92%. In the case of `O=C(Cc1cccc2nccn12)Nc1ccc(Oc2ccccc2)cc1` [Example 34, 2-(imidazo[1,2-a]pyridin-5-yl)-N-(4-phenoxyphenyl)acetamide], the inhibition at 10 µM worked out at 71%. Under `Cc1ccc(NC(=O)Cc2cccc3nccn23)cc1` [Example 35, 2-(imidazo[1,2-a]pyridin-5-yl)-N-(4-methylphenyl)acetamide] stands 90%; under `O=C(Cc1cccc2nccn12)Nc1ccc(C(F)(F)F)cn1` [Example 36, 2-(imidazo[1,2-a]pyridin-5-yl)-N-(5-(trifluoromethyl)pyridin-2-yl)acetamide], 80%. With `O=C(Cc1cccc2nccn12)Nc1ccc(C(F)(F)F)cc1Cl` [Example 37, N-(2-chloro-4-(trifluoromethyl)phenyl)-2-(imidazo[1,2-a]pyridin-5-yl)acetamide], the inhibition at 10 µM was found to be 81%.

With `O=C(Cc1cccc2nccn12)Nc1ccc(OCC(F)(F)F)cc1` [Example 38, 2-(imidazo[1,2-a]pyridin-5-yl)-N-(4-(2,2,2-trifluoroethoxy)phenyl)-acetamide], the inhibition at 10 µM was found to be 82%. In the case of `O=C(Cc1cccc2nccn12)Nc1ccc(C(F)(F)F)c(Cl)c1` [Example 39, N-(3-chloro-4-(trifluoromethyl)phenyl)-2-(imidazo[1,2-a]pyridin-5-yl)acetamide], the inhibition at 10 µM was 90%.

For the compound `O=C(Cc1cccc2nccn12)Nc1ccc(C(F)(F)F)cc1F` [Example 43, N-(2-fluoro-4-(trifluoromethyl)phenyl)-2-(imidazo[1,2-a]pyridin-5-yl)acetamide], the inhibition at 10 µM is 90%. `O=C(Cc1cccc2nccn12)Nc1ccc(C(F)(F)F)nc1` [Example 44, 2-(imidazo[1,2-a]pyridin-5-yl)-N-(6-(trifluoromethyl)pyridin-3-yl)acetamide]: the inhibition at 10 µM was 71%. The same measure for `O=C(Cc1cccc2nccn12)Nc1cnc(C(F)(F)F)nc1` [Example 47, 2-(imidazo[1,2-a]pyridin-5-yl)-N-(2-(trifluoromethyl)-pyrimidin-5-yl)acetamide]: 52%.

Values taken from patent US10202376B2, “Heterocyclic compound” (Takeda Pharmaceutical Company Limited, priority 2014, dated 2019).
